In test [1] the test system is co-culture of early passage human endothelial cells with early passage human interstitial cells. Briefly: AngioKit in vitro angiogenesis, total tubule length. The class given is cell-based. The conditions noted are these: 14 days, data not shown.
For test [2], the system named is avian chorioallantoic membrane (CAM). The class given is in vivo, Leghorn fertilized eggs. Conditions: fumagillin 5 μg/CAM; 48 h. The method, then: CGEN-G6 [SEQ ID NO: 6], CGEN-F9 [SEQ ID NO: 7], CGEN-F12 [SEQ ID NO: 8], CGEN-C6 [SEQ ID NO: 9], CGEN-A11 [SEQ ID NO: 10], and CGEN-G2 [SEQ ID NO: 11], were analyzed for their ability to affect angiogenesis using the in ovo avian chorioallantoic membrane (CAM) model of angiogenesis, which is widely used as a model to examine compounds affecting angiogenesis (Richardson and Singh 2003, Curr Drug Targets Cardiovasc Haematol Disord., 3(2):155-85). Two positive controls were used: fumagillin as a general anti-angiogenic compound, and Tie2 neutralizing antibody as anti-angiogenic inhibitor of the Ang/Tie2 pathway. Leghorn fertilized eggs were incubated for 4 days at 37° C., when a window was opened on the egg's shell, exposing the CAM. Two different doses of peptides (0.5 and 5 nmol/CAM), Tie-2 neutralizing antibody (R&D Systems, Cat#AF313, 10 μg/ml; 0.4 μg/CAM) or fumagillin (Tocris Bioscience, Cat #1768; 5 μg/CAM) were applied in a 40 μl volume inside an area of 1 cm^2 (restricted by a plastic ring) of the CAM on day 9 of embryo development. The appropriate vehicle controls were also tested. Forty-eight hours after treatment and subsequent incubation at 37° C., CAMs were fixed in situ, excised from the eggs, placed on slides and left to air-dry. Pictures were taken through a stereoscope equipped with a digital camera and the total length of the vessels was measured using image analysis software (NIH Image). For each group a total of 17-24 eggs from three different experiments were used. Data are presented as means±SEM and expressed as % of vehicle control. Statistical analysis (ANOVA followed by Dunnett's post-hoc test) was performed using Graph Pad.
FIG. 6 depict results obtained on vessel length with peptides CGEN-G6 [SEQ ID NO: 6], CGEN-F9 [SEQ ID NO: 7], CGEN-F12 [SEQ ID NO: 8], CGEN-C6 [SEQ ID NO: 9], CGEN-A11 [SEQ ID NO: 10], and CGEN-G2 [SEQ ID NO: 11], compared to Tie2 neutralizing antibody (Ab) and the anti-angiogenic compound fumagillin. Neutralizing Tie2 Ab blocked vessel length by 36%, while the angiogenesis inhibitor fumagillin blocked vessel length by 32%.

The test system of test [3] is oxygen-induced retinopathy (OIR). Briefly: Rodent model of oxygen-induced retinopathy (OIR). The class given is in vivo, Sprague Dawley rats. The source says:
In order to assess the in viva efficacy of CGEN-A 11 [SEQ ID NO: 10] in a disease model of angiogenesis, a rodent model of oxygen-induced retinopathy (OIR) was used. Sprague Dawley rats were raised from birth through day PI4 in a variable oxygen atmosphere consisting of 24-hour alternating cycles of 50% and 10% oxygen. Rats were predisposed to pathological retinal angiogenesis as a result of oxygen treatment. Upon removal from the oxygen exposure chamber on day P14, rats received intravitreal injections of CGEN-A11 [SEQ ID NO: 10] in one of two doses: 15 μg/ml (low) or 75 μg/ml (high), 100 μg/ml recombinant rat Tie-2/Fc (R&D Systems, 3874-T2) or 100 μg/ml anti-VEGFR2 (Sigma, V1014) as positive controls, a combination of CGEN-A11 [SEQ ID NO: 10] at 30 μg/ml and anti-VEGFR2 (100 μg/ml), or vehicle (PBS) at a volume of 5 μl. An additional similar intravitreal administration took place 3 days later, on day P17. All pups were sacrificed on day P20. Both normal, intra-retinal vascular growth and abnormal, pre-retinal neovascular growth were assessed at six days post-exposure (P20) in ADPase-stained retinal flat-mounts, using widely published methods (e.g. Penn J S et al., 1991, Invest Ophthalmol Vis Sci. 32(4):1147; MicLeod D S et al., 1987, Microvasc Res. 33:257-269). All assessments were performed by a single, highly trained observer, who was blinded to treatment group. Areas of normal and abnormal vascular growth were measured via computer-assisted image analysis using high-resolution digital images of the stained retinal flat-mounts. The data were subjected to analysis of variance to determine statistical significance and a Dunnett's post hoc test to identify how the various treatment groups compared.
Data are depicted using percent total retinal area vascularized. Sample sizes (10, 11 or 12) are indicated on each bar. […] These differences yielded statistical significance, both at p<0.0001. Statistical significance was calculated using area (mm^2) measurements.
Data are depicted as area vascularized (mm^2). Sample sizes (10, 11 or 12) are indicated on each bar.

`Cc1ccc(C(=O)Nc2ccc(S(=O)(=O)O)c3cc(S(=O)(=O)O)cc(S(=O)(=O)O)c23)cc1NC(=O)c1cccc(NC(=O)Nc2cccc(C(=O)Nc3cc(C(=O)Nc4ccc(S(=O)(=O)O)c5cc(S(=O)(=O)O)cc(S(=O)(=O)O)c45)ccc3C)c2)c1` [suramin]: the “reduction of tubule length” value in test [1] (suramin 20 μM) is 50%.
`CO[C@@H]1[C@H](OC(=O)/C=C/C=C/C=C/C=C/C(=O)O)CC[C@]2(CO2)[C@H]1[C@@]1(C)O[C@@H]1CC=C(C)C` [fumagillin, reference compound]: the “inhibition of vessel length” value in test [2] amounted to 32%.
Take VEGF: in test [1] (VEGF 2 ng/mL, pro-angiogenic control), the “induction of tubule length” value is on record as 130%.

B1: Tie-2/Fc: recombinant rat Tie-2/Fc (R&D Systems, 3874-T2), positive control (protein)
chain: AMDLILINSLPLVSDAETSLTCIASGWRPHEPITIGRDFEALMNQHQDPLEVTQDVTREWAKKVVWKREKASKINGAYFCEGRVRGEAIRIRTMKMRQQASFLPATLTMTVDKGDNVNISFKKVLIKEEDAVIYKNGSFIHSVPRHEVPDILEVHLPHAQPQDAGVYSARYIGGNLFTSAFTRLIVRRCEAQKWGPECNHLCTACMNNGVCHEDTGECICPPGFMGRTCEKACELHTFGRTCKERCSGQEGCKSYVFCLPDPYGCSCATGWKGLQCNEACHPGFYGPDCKLRCSCNNGEMCDRFQGCLCSPGWQGLQCEREGIQRMTPKIVDLPDHIEVNSGKFNPICKASGWPLPTNEEMTLVKPDGTVLHPKDFNHTDHFSVAIFTIHRILPPDSGVWVCSVNTVAGMVEKPFNISVKVLPKPLNAPNVIDTGHNFAVINISSEPYFGDGPIKSKKLLYKPVNHYEAWQHIQVTNEIVTLNYLEPRTEYELCVQLVRRGEGGEGHPGPVRRFTTASIGLPPPRGLNLLPKSQTTLNLTWQPIFPSSEDDFYVEVERRSVQKSDQQNIKVPGNLTSVLLNNLHPREQYVVRARVNTKAQGEWSEDLTAWTLSDILPPQPENIKISNITHSSAVISWTILDGYSISSITIRYKVQGKNEDQHVDVKIKNATITQYQLKGLEPETAYQVDIFAENNIGSSNPAFSHELVTLPESQAPADLGGGK
modifications: left off: a dimerising Fc or GST
notes: recombinant rat Tie-2/Fc (R&D Systems, 3874-T2), positive control
As to B1, in test [3] (Tie-2/Fc intravitreal 100 μg/ml, P20, p=0.0436), the “inhibition of pre-retinal neovascular growth (pathological angiogenesis)” value amounted to 61.9%. The “intra-retinal normal vascular growth compared to PBS control” value in test [3] (intravitreal 100 μg/ml, 5 μl, P14 and P17, assessed P20, p<0.0001) was “statistically significant increase”.

The record behind these values is patent US9255132B2, “Angiopoietin derived peptides” (Compugen Ltd., priority 2008, dated 2016).
